Measurements from patent US20130045204A1, “FLUORINATED BISPHENOL ETHER COMPOUNDS AND METHODS FOR THEIR USE” (The University of British Columbia, priority 2011, published 2013).
Entries after “also recorded” stand apart in the source; their conditions may differ.

Columns and labels:
AR [1] = biological target: T1, AR (Homo sapiens, UniProt P10275); experiment: PSA-luciferase reporter assay of AR transcriptional activity; format: cell-based; conditions: for PSA-Luc activity (%) mean ± SD: PSA-luciferase reporter
T1 sequence (P10275 1-920 T878A): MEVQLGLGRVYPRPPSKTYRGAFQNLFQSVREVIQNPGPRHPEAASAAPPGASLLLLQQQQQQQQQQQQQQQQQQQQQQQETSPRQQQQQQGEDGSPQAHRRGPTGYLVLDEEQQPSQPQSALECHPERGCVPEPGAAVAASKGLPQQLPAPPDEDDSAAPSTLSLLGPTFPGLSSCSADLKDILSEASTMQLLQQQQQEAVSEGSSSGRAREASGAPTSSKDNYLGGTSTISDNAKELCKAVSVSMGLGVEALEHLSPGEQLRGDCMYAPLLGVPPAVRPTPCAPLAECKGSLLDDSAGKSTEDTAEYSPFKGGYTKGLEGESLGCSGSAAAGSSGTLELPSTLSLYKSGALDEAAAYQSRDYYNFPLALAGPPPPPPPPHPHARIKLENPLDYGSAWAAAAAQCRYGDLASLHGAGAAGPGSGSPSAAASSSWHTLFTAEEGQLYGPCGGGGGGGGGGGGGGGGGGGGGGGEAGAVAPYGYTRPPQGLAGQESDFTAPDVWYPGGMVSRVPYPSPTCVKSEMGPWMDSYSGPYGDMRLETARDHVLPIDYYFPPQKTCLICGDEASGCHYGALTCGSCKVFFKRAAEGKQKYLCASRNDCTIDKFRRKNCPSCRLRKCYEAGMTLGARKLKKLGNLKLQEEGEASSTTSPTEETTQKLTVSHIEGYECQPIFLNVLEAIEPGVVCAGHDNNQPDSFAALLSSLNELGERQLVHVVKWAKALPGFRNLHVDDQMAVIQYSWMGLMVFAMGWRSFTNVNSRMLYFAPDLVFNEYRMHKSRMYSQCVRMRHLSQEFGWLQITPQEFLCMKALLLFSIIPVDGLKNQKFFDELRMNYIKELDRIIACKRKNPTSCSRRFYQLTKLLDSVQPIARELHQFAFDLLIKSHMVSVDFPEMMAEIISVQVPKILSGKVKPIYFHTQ

AR [2] = biological target: T1, AR; experiment: ARR3-luciferase reporter assay of AR transcriptional activity; format: cell-based
AR [3] = biological target: T1, AR; experiment: probasin (PB)-luciferase reporter assay of AR transcriptional activity; format: cell-based
LNCaP CRPC xenograft = LNCaP CRPC xenograft model, antitumor activity; format: in vivo, mice; conditions: for CRPC tumor growth / antitumor activity (in words): compared to DMSO control or to other comparative compounds, FIGS. 6, 7
[4] = Body weight of animals in LNCaP CRPC xenograft model; format: in vivo, mice; conditions: treated animals; FIG. 9
LNCaP cells = experiment: Inhibition of androgen-dependent proliferation, AlamarBlue Proliferation Assay; format: cell-based, human; conditions: 0.1 nM R1881, 3 days; compared to comparative compound (Ac); FIGS. 1A and 1B
Experimental: LNCaP human prostate cancer cells were maintained in phenol red-free RPMI 1640 medium with 0.5% (v/v) fetal bovine serum, while PC3 human prostate cancer cells were cultured in phenol red DMEM medium with 0.5% (v/v) fetal bovine serum at 37° C. […] LNCaP cells were incubated for 72 hours with R1881, while the duration of the experiment was 48 hours for PC3 cells. AlamarBlue reagent was added to the cells prior to incubation and measuring fluorescence at 570 nm.

[5] = biological target: T2, androgen receptor N-terminal domain (Homo sapiens, UniProt P10275); experiment: Inhibition of androgen receptor N-terminal domain transactivation (AR (1-558)-Gal4 DBD, luciferase); format: cell-based; conditions: LNCaP cells, compound 1 20 μm vs (Ac) 25 μm, 50 ng/ml IL-6; FIG. 2
T2 construct: AR (1-558)-Gal4 DBD; expressed in transfected cells; host or cells: LNCaP
T2 sequence (P10275 1-558): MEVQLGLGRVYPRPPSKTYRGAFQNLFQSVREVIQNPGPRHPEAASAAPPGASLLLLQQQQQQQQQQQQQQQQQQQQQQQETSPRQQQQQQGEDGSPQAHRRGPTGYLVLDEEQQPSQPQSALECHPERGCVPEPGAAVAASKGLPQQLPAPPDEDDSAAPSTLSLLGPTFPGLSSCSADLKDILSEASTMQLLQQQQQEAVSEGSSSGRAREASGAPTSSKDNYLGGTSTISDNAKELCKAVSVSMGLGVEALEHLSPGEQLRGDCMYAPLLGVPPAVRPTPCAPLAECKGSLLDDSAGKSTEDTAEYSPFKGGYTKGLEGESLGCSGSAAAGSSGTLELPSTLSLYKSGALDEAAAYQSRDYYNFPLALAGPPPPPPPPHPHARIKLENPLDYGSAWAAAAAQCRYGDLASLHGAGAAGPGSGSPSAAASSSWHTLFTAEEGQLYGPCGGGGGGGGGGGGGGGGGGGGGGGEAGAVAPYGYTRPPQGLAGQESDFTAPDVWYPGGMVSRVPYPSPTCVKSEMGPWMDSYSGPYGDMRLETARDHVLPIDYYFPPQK
Experimental: Inhibition of androgen receptor N-terminal domain transactivation was determined as follows.

VCaP xenografts = experiment: Growth inhibition of VCaP xenografts in castrated mice; format: in vivo; conditions: castrated NOD-SCID mice, 50 mg/kg i.v. every other day, seven doses; compared to (Ac); FIGS. 3, 4
Experimental: Growth inhibition of VCaP xenografts in castrated mice was determined as follow. Male NOD-SCID mice bearing subcutaneous VCaP tumors were castrated when tumor volume was ˜100 mm^3. […] The experiment ended two days after the last dose. Change in tumor volume was determined as the change at day 14 compared to the day of 1st injection. DMSO was used as the vehicle control.

Compound	PSA-Luc activity (%) mean ± SD (AR [1]) [%]	ARR3-Luc activity (%) mean ± SD (AR [2]) [%]	PB-Luc activity (%) mean ± SD (AR [3]) [%]	change in tumor volume at day 14 (in words) (VCaP xenografts)	further results
CC(C)(c1ccc(OCC(O)CO)cc1)c1ccc(OCC(O)CCl)cc1 (stereo not shown) [(A)]	36.91 ± 16.46	63.96 ± 14.57	63.96 ± 13.70		
CC(C)(c1ccc(OC[C@H](O)CO)cc1)c1ccc(OC[C@@H](O)CCl)cc1 [(Aa)]	45.16 ± 29.13	66.44 ± 31.59	66.44 ± 12.47		
CC(C)(c1ccc(OC[C@H](O)CCl)cc1)c1ccc(OC[C@@H](O)CO)cc1 [(Ab)]	24.49 ± 13.20	43.68 ± 15.16	43.70 ± 9.98		animals in which tumor regression was attained (LNCaP CRPC xenograft; FIG. 8): 60%; CRPC tumor growth / antitumor activity (in words) (LNCaP CRPC xenograft): better antitumor activity; loss of body weight (in words) [4]: some losses
CC(C)(c1ccc(OC[C@H](O)CO)cc1)c1ccc(OC[C@H](O)CCl)cc1 [(Ac)]	24.33 ± 13.63	41.58 ± 14.82	41.58 ± 6.63		inhibition of transcriptional activity of AR (in words) (AR [1]; PSA-, probasin (PB)- and ARR3-luciferase reporters, Table 3): best activity of all the comparative compounds; extent of tumor regression (in words) (LNCaP CRPC xenograft; (Ac) versus (Ab), FIG. 8): greater regression; animals in which tumor regression was attained (LNCaP CRPC xenograft; FIG. 8): 60%; CRPC tumor growth / antitumor activity (in words) (LNCaP CRPC xenograft): better antitumor activity; also recorded: most potent and least toxic of the comparative compounds; loss of body weight (in words) [4]: No loss of body weight
CC(C)(c1ccc(OC[C@@H](O)CO)cc1)c1ccc(OC[C@@H](O)CCl)cc1 [(Ad)]	33.55 ± 11.31	54.73 ± 12.99	54.72 ± 7.83		
CC(C)(c1ccc(OCC(O)CF)cc1)c1ccc(OCC(O)CCl)cc1 (stereo not shown) [Compound 1, 1-chloro-3-(4-(2-(4-(3-fluoro-2-hydroxypropoxy)phenyl)propan-2-yl)phenoxy)propan-2-ol]				increased loss in tumor volume	inhibition of androgen-dependent proliferation of LNCaP cells (in words) (LNCaP cells): inhibits androgen-dependent proliferation of LNCaP cells at lower concentrations; inhibition of androgen receptor N-terminal domain transactivation (in words) [5]: more potent inhibition activity
CC(C)(c1ccc(OC[C@H](O)CF)cc1)c1ccc(OC[C@H](O)CCl)cc1 [Compound 1c, (S)-1-chloro-3-(4-(2-(4-((S)-3-fluoro-2-hydroxypropoxy)phenyl)propan-2-yl)phenoxy)propan-2-ol]				increased loss in tumor volume	
CC(C)(c1ccc(OC[C@@H](O)CF)cc1)c1ccc(OC[C@@H](O)CCl)cc1 [Compound 1d, (R)-1-chloro-3-(4-(2-(4-((R)-3-fluoro-2-hydroxypropoxy)phenyl)propan-2-yl)phenoxy)propan-2-ol]				increased loss in tumor volume	
